Laboratory results: ChEMBL document CHEMBL3045529, “A rational design, synthesis, characterization, and antihypertensive activities of some new substituted benzimidazoles” (2013)

What follows are molecules tested on Cavia porcellus (assay: Antihypertensive activity in Cavia porcellus (guinea pig) assessed as decrease in systolic blood pressure at 3 mg/kg, iv relative to control).
Type: functional, Artery
Molecule `CCC/C=N/c1ccc2c(c1)nc(CCCC)n2Cc1ccc(-c2ccccc2-c2nnn[nH]2)cc1` has an Activity of 17 mmHg.
For `CCCCc1nc2cc(NC(=O)c3ccccc3)ccc2n1Cc1ccc(-c2ccccc2-c2nnn[nH]2)cc1`, the Activity was 28 mmHg.
`CC/C=N/c1ccc2c(c1)nc(CCCC)n2Cc1ccc(-c2ccccc2-c2nnn[nH]2)cc1` was tested, and the Activity was 18 mmHg.
`CCCCc1nc2cc(NCCC)ccc2n1Cc1ccc(-c2ccccc2-c2nnn[nH]2)cc1` showed an Activity of 32 mmHg.
`C/C=N/c1ccc2c(c1)nc(CCCC)n2Cc1ccc(-c2ccccc2-c2nnn[nH]2)cc1` gave an Activity of 27 mmHg.
Work on `CCCCc1nc2cc(NCc3ccccc3)ccc2n1Cc1ccc(-c2ccccc2-c2nnn[nH]2)cc1` yielded an Activity of 31 mmHg.
Molecule `CCCCc1nc2cc([N+](=O)[O-])ccc2n1Cc1ccc(-c2ccccc2-c2nnn[nH]2)cc1` has an Activity of 15 mmHg.
Work on `CCCCc1nc2cc(N)ccc2n1Cc1ccc(-c2ccccc2-c2nnn[nH]2)cc1` yielded an Activity of 19 mmHg.
`CCCCc1nc2cc(N(C)C)ccc2n1Cc1ccc(-c2ccccc2-c2nnn[nH]2)cc1` gave an Activity of 29 mmHg.
With `CCCCc1nc2cc(NC)ccc2n1Cc1ccc(-c2ccccc2-c2nnn[nH]2)cc1` the Activity was 12 mmHg.
Molecule `CCCCC/C=N/c1ccc2c(c1)nc(CCCC)n2Cc1ccc(-c2ccccc2-c2nnn[nH]2)cc1` has an Activity of 25 mmHg.
`CCCCNc1ccc2c(c1)nc(CCCC)n2Cc1ccc(-c2ccccc2-c2nnn[nH]2)cc1` showed an Activity of 31 mmHg.
For `CCCC/C=N/c1ccc2c(c1)nc(CCCC)n2Cc1ccc(-c2ccccc2-c2nnn[nH]2)cc1`, the Activity was 27 mmHg.
Work on `CCCCc1nc(Cl)c(CO)n1Cc1ccc(-c2ccccc2-c2nnn[nH]2)cc1` [LOSARTAN] yielded an Activity of 34 mmHg.
In the case of `CCCCc1nc2cc(N(CC)CC)ccc2n1Cc1ccc(-c2ccccc2-c2nnn[nH]2)cc1`, the Activity is reported as 33 mmHg.
In the case of `CCCCc1nc2cc(NC(C)=O)ccc2n1Cc1ccc(-c2ccccc2-c2nnn[nH]2)cc1`, the Activity is reported as 22 mmHg.
With `CCCCc1nc2cc(NCC)ccc2n1Cc1ccc(-c2ccccc2-c2nnn[nH]2)cc1` the Activity was 29 mmHg.
